The test addresses rat mGluR2 receptor (Rattus norvegicus, UniProt P31421). Briefly: GTP γ^35 S test for affinity to group II mGluR (antagonism of 1S,3R-ACPD effect, membranes with rat mGluR2). In kind it is biochemical. The procedure:
The binding of the compounds of formula I in accordance with the invention to group II metabotropic glutamate receptors was determined in vitro. The preparations were tested in accordance with the test given hereinafter:
The GTP γ^35 S test was used to determine the affinity of a compound to the group II mGluR. Membranes which adhere to the rat mGluR2 receptor were used. These were stimulated with 10 μM 1S,3R-ACPD.
The Ki values of the compounds to be tested are given. The Ki value is defined by the following formula [formula]
Chain of rat mGluR2 receptor (P31421 19-872): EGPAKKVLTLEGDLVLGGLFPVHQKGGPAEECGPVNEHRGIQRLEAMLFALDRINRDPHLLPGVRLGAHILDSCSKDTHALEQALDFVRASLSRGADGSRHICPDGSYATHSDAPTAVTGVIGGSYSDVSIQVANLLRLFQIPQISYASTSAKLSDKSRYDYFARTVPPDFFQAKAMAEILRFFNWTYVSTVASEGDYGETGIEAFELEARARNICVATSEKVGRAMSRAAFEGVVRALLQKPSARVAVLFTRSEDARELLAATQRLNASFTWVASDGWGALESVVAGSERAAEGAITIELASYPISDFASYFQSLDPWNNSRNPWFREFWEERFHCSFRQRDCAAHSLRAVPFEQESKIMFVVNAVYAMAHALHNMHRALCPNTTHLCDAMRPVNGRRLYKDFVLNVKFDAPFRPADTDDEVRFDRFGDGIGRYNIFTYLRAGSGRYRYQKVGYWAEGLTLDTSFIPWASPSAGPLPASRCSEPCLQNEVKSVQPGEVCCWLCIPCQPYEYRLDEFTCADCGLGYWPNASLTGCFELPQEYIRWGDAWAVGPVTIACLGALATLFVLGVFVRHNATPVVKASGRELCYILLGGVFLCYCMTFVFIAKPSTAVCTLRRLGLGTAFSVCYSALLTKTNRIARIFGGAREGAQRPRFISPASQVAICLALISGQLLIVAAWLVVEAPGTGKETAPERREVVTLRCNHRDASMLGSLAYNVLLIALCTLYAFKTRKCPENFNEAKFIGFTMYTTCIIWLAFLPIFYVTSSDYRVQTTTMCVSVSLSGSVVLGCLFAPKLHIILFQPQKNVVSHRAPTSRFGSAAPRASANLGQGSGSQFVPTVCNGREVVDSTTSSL
On to `CC(C)OC(=Cn1cncn1)c1ccc(Cl)cc1Cl` [A, 1-[2-(2,4-Dichloro-phenyl)-2-isopropoxy-vinyl]-1H-[1,2,4]triazole], for which the Ki was 1170 nM.
Turning to `CC(C)COC(=Cn1cncn1)c1ccc(Cl)cc1Cl` [B, 1-[2-(2,4-Dichloro-phenyl)-2-isobutoxy-vinyl]-1H-[1,2,4]triazole], the Ki is 640 nM.
The same measure for `CCCCOC(=Cn1cncn1)c1ccc(Cl)cc1Cl` [C, 1-[-2-(2,4-Dichloro-phenyl)-2-butoxy-2-vinyl]-1H-[1,2,4]triazole]: 1400 nM; for `CC(C)OC(=Cn1cncn1)c1c(Cl)cc(Cl)cc1Cl` [D, 1-[2-(2,4,6-Trichloro-phenyl)-2-isopropoxy-vinyl]-1H-[1,2,4]triazole]: 2700 nM.
In the case of `COC(=Cn1cncn1)c1ccc(Cl)cc1Cl` [E, 1-[2-(2,4-Dichloro-phenyl)-2-methoxy-vinyl]-1H-[1,2,4]triazole], the Ki is 11000 nM.
With `CCCCOC(=Cn1cncn1)c1ccc(Br)cc1` [F, 1-[2-(4-Bromo-phenyl)-2-butoxy-vinyl]-1H-[1,2,4]triazole], affinity was put at a Ki of 660 nM.

Usually Ki stands for the equilibrium dissociation constant of an inhibitor or competing ligand from its target. A higher Ki goes with weaker binding.

These data come from patent US6248901A, “Heterocyclic vinyl ethers” (Hoffman-La Roche Inc., priority 1997, dated 2001).
